Test results: patent publication US20240226158A9, “ADMINISTRATION OF TUMOR INFILTRATING LYMPHOCYTES WITH MEMBRANE BOUND INTERLEUKIN 15 TO TREAT CANCER” (OBSIDIAN THERAPEUTICS, INC., priority 2021, published 2024)

System: IL15 signaling pathway (pSTAT5, pS6)
Experiment: phospho-flow cytometry assay of IL15 expression and signaling
Type: cell-based, human
Settings: regulated mbIL15 TILs, 18 hours, 4 donors
Method: Pre-REP TILs were prepared similarly to the methods of Example 1-3 and 9, and unengineered and mbIL15 TIL generated accordingly as described in Examples 1-3 and 9. Engagement of the IL15 signaling pathway results in phosphorylation of signal transducers downstream, including the transcription factor protein STATS and ribosomal protein S6. […] Next, the regulated mbIL15 TILs were regulated for 18 hours in the presence of a range of concentrations of ACZ including 0.1, 1, 2.5, 5, 10, 25, 100 μM, as well as vehicle control. The regulated mbIL15 TILs were then collected for staining and FACS analysis.
Briefly, cells were stained using antibodies for CD3, CD4, CD8, IL15 and a Live/Dead marker. Then cells were fixed in 2% formaldehyde (BD Cytofix) and permeabilized using a methanol-based buffer (BD Phospho Perm III Buffer) before staining with antibodies specific for phosphorylated STATS (Biolegend) and S6 (Cell Signaling Technology). Cells were acquired on the BD Symphony and analyzed using FlowJo software.
In order to compare different strategies for IL15 expression, TILs were utilized that constitutively express mbIL15 and regulated mbIL15 TILs. Cryopreserved unengineered TILs, constitutive mbIL15 TILs, and regulated mbIL15 TILs, from three human donors were thawed and then rested in ACZ-free media for 24 hours. […] Cells were acquired on the BD Fortessa and analyzed using FlowJo software.

Compound: CC(=O)Nc1nnc(S(N)(=O)=O)s1 [ACZ, acetazolamide]
- relationship between ACZ and IL15 expression and signaling (pSTAT5, pS6): dose-dependent relationship
